According to patent US20100183684A1, “Oral vaccination” (Bio Life Science, priority 2002, published 2010):
Structures can show the parent of a compound that is named as a salt.

Test system: caviar extract
Assay: Antibody induction against orally fed caviar extract in mice, measured by ELISA
Assay type: in vivo
Conditions: Balb/c mice, gastric acid reducing agent with 2 mg caviar protein extract orally, fed simultaneously or with a time delay, not against daily diet; for induction of IgE antibodies against caviar extract: ELISA OD 405/450 nm
Method: Four groups (A to D) with five Balb/c mice each were treated in the following way: • Group A: Oral administration of Zantac (ULSAL®, active agent: 20 microg ranitidine per mouse, single dose per mouse one hour before feeding […] with antigen) and antigen (2 mg caviar protein extract per mouse), • Group B: Oral administration of a mixture of Ulcogant (active agent: 2 mg sucralfate per mouse) and antigen (2 mg caviar protein extract per mouse), • Group C: Comparative example with intraperitoneal administration of caviar antigen (2 mg) and aluminum hydroxide as an adjuvant, • Group D: Comparative example with oral administration of antigen (2 mg).
The antigen used was caviar extract. As a reference regarding the caviar extract used, the publication by Untersmayr E, Schöll I, Förster-Waldl E, Walter F, Riemer A, Boltz-Nitulescu G, Scheiner O, Jensen-Jarolim E. J Allergy and Immun. 2002; 109 (6): 1034-5 is cited. The antigen contained therein has a molecular weight of 118 kDa.
The obtained results are rendered in FIG. 1. […] Groups A and B were given the antigen in conjunction with a gastric acid reducing agent orally according to the invention, while for comparison purposes group C was immunized according to a standard scheme for IgE induction, and group D was given the antigen orally without gastric acid reducing agent.

| Compound | induction of IgE antibodies against caviar extract | induction of IgG antibodies against caviar extract |
| --- | --- | --- |
| CNC(=C[N+](=O)[O-])NCCSCc1ccc(CN(C)C)o1 [Zantac, ranitidine hydrochloride] | lasting induction | lasting induction |
| aluminum sucrose hydrogen sulfate [Ulcogant] | lasting induction | lasting induction |
